Results taken from patent US10183952B2, “Thienopyrroles as histone demethylase inhibitors” (ISTITUTO EUROPEO DI ONCOLOGIA S.R.L., priority 2014, dated 2019).
Where a name gives a salt, the structure may show the parent alone.

Experiments:
[1] = biological target: human recombinant KDM1A/CoREST protein (Homo sapiens, UniProt O60341); experiment: Assay of enzyme inhibition of KDM1A (LSD1), TR-FRET
Method: The intensity of the light emission is proportional to the level of biotinylated reaction product. The complex of human recombinant KDM1A/CoREST protein was produced in E. coli as separate proteins and co-purified as previously described.
Demethylase reaction was started by the addition of 50 nM histone H3K4 monomethylated.
The resulting mixture was incubated in the dark for 1 h at RT.

[2] = test system: human leukemia MV4-11 cells; experiment: Cell growth, CellTiter-Fluor Cell Viability Assay, MV4-11; type: cell-based; conditions: 48 h incubation, read-out: IC50 against human leukemia MV4-11 cells
From the text: (§1) The CellTiter-Fluor™ Cell Viability Assay measures the conserved and constitutive protease activity within live cells and therefore acts as a marker for cell viability.
(§2) CellTiter-Flor® (Promega) is as a nonlytic, single-reagent-addition fluorescence assay that measures the relative number of living cells in a culture population after experimental manipulation. The CellTiter-Fluor™ Cell Viability Assay measures the conserved and constitutive protease activity within live cells and therefore acts as a marker for cell viability.
(§3) Human leukemia MV4-11 cells, (obtained from the Deutsche Sammlung von Mikroorganismen und Zellkulturen, ACC 102) or NB4 cells, (obtained from the Deutsche Sammlung von Mikroorganismen und Zellkulturen) in exponential growth, were incubated for 48 h with different concentrations of the inhibitors. After 48 h a volume of CellTiter-Fluor® Reagent equal to one fifth of volume of cell culture medium was added. The content was mixed and incubates for at least 90 min at 37° C. degree to obtain a stable signal. The fluorescence was recorded using an excitation wavelength of 360 nm and an emission at 535 nm. The IC50 was calculated using GraphPad Software.

human leukemia NB4 cells = experiment: Cell growth, CellTiter-Fluor Cell Viability Assay, NB4; type: cell-based; conditions: NB-4, 48 h incubation, read-out: IC50 against human leukemia NB4 cells
From the text: as §1, §2, §3

SMILES	IC50 [1] [µM]	IC50 [2] [µM]	IC50 (human leukemia NB4 cells) [µM]
Cn1c(C(=O)Nc2ccccc2COc2ccc(O[C@H]3CC[C@@H](N)CC3)cc2)cc2sccc21 [Example 9, N-[2-[[4-(cis-4-aminocyclohexoxy)phenoxy]methyl]phenyl]-4-methyl-thieno[3,2-b]pyrrole-5-carboxamide]	< 10	< 10	< 20
Cn1c(C(=O)Nc2cccc(COc3ccc(OC4CCNCC4)cc3)c2)cc2sccc21 [Example 10, 4-methyl-N-[3-[[4-(4-piperidyloxy)phenoxy]methyl]phenyl]thieno[3,2-b]pyrrole-5-carboxamide]	< 10	< 10	< 20
Cn1c(C(=O)Nc2ccccc2COc2ccc(OC[C@H]3CCNC3)cc2)cc2sccc21 [Example 11, 4-methyl-N-[2-[[4-[[(3S)-pyrrolidin-3-yl]methoxy]phenoxy]methyl]phenyl]thieno[3,2-b]pyrrole-5-carboxamide]	< 10	< 10	< 20
CN1CCC(Oc2ccc(OCc3ccccc3NC(=O)c3cc4sccc4n3C)cc2)CC1 [Example 13, 4-methyl-N-[2-[[4-[(1-methyl-4-piperidyl)oxy]phenoxy]methyl]phenyl]thieno[3,2-b]pyrrole-5-carboxamide]	< 10	< 10	< 20
Cn1c(C(=O)Nc2ccccc2COc2ccc(O[C@H]3CC[C@H](N)CC3)cc2)cc2sccc21 [Example 14, N-[2-[[4-(trans-4-aminocyclohexoxy)phenoxy]methyl]phenyl]-4-methyl-thieno[3,2-b]pyrrole-5-carboxamide]	< 10	< 10	< 20
CN1CCC(Oc2ccc(OCc3cccc(NC(=O)c4cc5sccc5n4C)c3)cc2)CC1 [Example 15, 4-methyl-N-[3-[[4-[(1-methyl-4-piperidyl)oxy]phenoxy]methyl]phenyl]thieno[3,2-b]pyrrole-5-carboxamide]	< 10	< 10	< 20
CN1CCC(Oc2cccc(OCc3ccccc3NC(=O)c3cc4sccc4n3C)c2)CC1 [Example 17, 4-methyl-N-[2-[[3-[(1-methyl-4-piperidyl)oxy]phenoxy]methyl]phenyl]thieno[3,2-b]pyrrole-5-carboxamide]	< 10	< 10	< 20
Cn1c(C(=O)Nc2ccccc2COc2cccc(OC3CCNCC3)c2)cc2sccc21 [Example 18, 4-methyl-N-[2-[[3-(4-piperidyloxy)phenoxy]methyl]phenyl]thieno[3,2-b]pyrrole-5-carboxamide]	< 10	< 10	< 20

Next, values leading:

IC50 [1] [µM]	IC50 [2] [µM]	IC50 (human leukemia NB4 cells) [µM]	SMILES
< 10	< 10	< 20	Cn1c(C(=O)Nc2ccccc2COc2ccc(OC3CCCNCC3)cc2)cc2sccc21 (stereo not drawn) [Example 7, N-[2-[[4-(azepan-4-yloxy)phenoxy]methyl]phenyl]-4-methyl-thieno[3,2-b]pyrrole-5-carboxamide hydrochloride]
< 10	< 10	< 20	CCn1c(C(=O)Nc2ccccc2COc2ccc(OC3CCNCC3)cc2)cc2sccc21 [Example 8, 4-ethyl-N-[2-[[4-(4-piperidyloxy)phenoxy]methyl]phenyl]thieno[3,2-b]pyrrole-5-carboxamide]
< 10	< 10	< 20	CCn1c(C(=O)Nc2ccccc2COc2ccc(OC3CCN(C)CC3)cc2)cc2sccc21 [Example 12, 4-ethyl-N-[2-[[4-[(1-methyl-4-piperidyl)oxy]phenoxy]methyl]phenyl]thieno[3,2-b]pyrrole-5-carboxamide]
< 10	< 10	< 20	Cn1c(C(=O)Nc2ccccc2COc2ccc(OC3CCNC3)cc2)cc2sccc21 (stereo not drawn) [Example 16, 4-methyl-N-[2-[(4-pyrrolidin-3-yloxyphenoxy)methyl]phenyl]thieno[3,2-b]pyrrole-5-carboxamide]
